Patent US20110159088A1, “ORAL PHARMACEUTICAL FOR BASED ON AT LEAST ONE ACTIVE PRINCIPLE WHOSE SOLUBILITY VARIES AS A FUNCTION OF THE GASTRIC pH CONDITIONS” (Flamel Technologies, S.A., priority 2005, published 2011)
Values after ≈ are worked out from the molar mass of the structure shown.

Test: physchem
Format: physicochemical
Settings: 37 °C
Method: This solubility is measured in an aqueous medium at 37° C., maintained at the pH under consideration. The solubility of Irbesartan varies greatly in the gastric pH range: The solubility of Eprosartan varies greatly in the gastric pH range: The solubility of Acyclovir varies greatly in the gastric pH range: […]

[1] = pH 1.2, simulated gastric fluid

| SMILES | solubility [1] | solubility (pH 2, simulated gastric fluid) | solubility (pH 2.5, aqueous buffer) | solubility (pH 4.5, aqueous buffer) | solubility (pH 6.8, aqueous buffer) | solubility (pH 3, aqueous buffer) | solubility (pH 5.5, aqueous buffer) |
| --- | --- | --- | --- | --- | --- | --- | --- |
| Nc1nc2c(ncn2COCCO)c(=O)[nH]1 [Acyclovir] | 10500 µg/mL (≈ 46600 µM) | 6000 µg/mL (≈ 26600 µM) | 3300 µg/mL (≈ 14700 µM) | 2600 µg/mL (≈ 11500 µM) | 2500 µg/mL (≈ 11100 µM) | – | – |
| CCCCc1ncc(/C=C(\Cc2cccs2)C(=O)O)n1Cc1ccc(C(=O)O)cc1 [Eprosartan] | 795 µg/mL (≈ 1870 µM) | 142 µg/mL (≈ 334 µM) | – | 18 µg/mL (≈ 42.4 µM) | 1190 µg/mL (≈ 2810 µM) | 33 µg/mL (≈ 77.7 µM) | 15 µg/mL (≈ 35.3 µM) |
| CCCCC1=NC2(CCCC2)C(=O)N1Cc1ccc(-c2ccccc2-c2nnn[nH]2)cc1 [Irbesartan] | 2420 µg/mL (≈ 5650 µM) | 362 µg/mL (≈ 845 µM) | – | 20 µg/mL (≈ 46.7 µM) | 666 µg/mL (≈ 1550 µM) | 48 µg/mL (≈ 112 µM) | 65 µg/mL (≈ 152 µM) |
